Here are results for 11 compounds from patent publication US20220409631A1, “METHODS OF INDUCING OR ENHANCING FARNESOID X RECEPTOR (FXR)-MEDIATED TRANSCRIPTIONAL RESPONSE” (YALE UNIVERSITY, priority 2019, published 2022).

A word on the IC50: it is the concentration at which inhibition is half-maximal. For orientation: EC50 means the concentration needed to bring the measured effect to its halfway point.

Entries after “also recorded” stand apart in the source; their conditions may differ. Read-outs that look alike come from different tables or passages of the source. Where only a bound is given, the exact number is not on record here.

Holding throughout (assay type): cell-based
In one test the target is T1, ER-α (Homo sapiens, UniProt P03372).
T1 sequence (P03372 1-595): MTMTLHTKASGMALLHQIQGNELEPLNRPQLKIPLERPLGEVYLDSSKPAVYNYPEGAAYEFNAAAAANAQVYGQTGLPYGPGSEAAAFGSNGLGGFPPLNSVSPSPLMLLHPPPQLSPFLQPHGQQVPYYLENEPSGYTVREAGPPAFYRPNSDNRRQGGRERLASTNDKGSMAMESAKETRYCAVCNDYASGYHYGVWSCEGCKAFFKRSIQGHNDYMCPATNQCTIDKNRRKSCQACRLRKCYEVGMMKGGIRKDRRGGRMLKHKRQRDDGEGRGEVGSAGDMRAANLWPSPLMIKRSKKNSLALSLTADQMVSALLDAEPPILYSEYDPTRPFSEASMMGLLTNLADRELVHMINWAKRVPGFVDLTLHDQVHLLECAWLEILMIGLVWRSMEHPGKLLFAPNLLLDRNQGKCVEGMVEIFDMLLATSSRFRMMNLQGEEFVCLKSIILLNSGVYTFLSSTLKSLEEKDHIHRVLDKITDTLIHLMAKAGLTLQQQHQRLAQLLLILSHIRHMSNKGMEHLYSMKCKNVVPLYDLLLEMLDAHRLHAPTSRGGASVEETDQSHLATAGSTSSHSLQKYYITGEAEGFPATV
As to the kind of experiment: Hormone receptor signaling pathway selectivity: ER-α mediated transcriptional response. The settings on record: with E2.

A further test has as its target T2, AR (Homo sapiens, UniProt P10275).
T2 sequence (P10275 1-920): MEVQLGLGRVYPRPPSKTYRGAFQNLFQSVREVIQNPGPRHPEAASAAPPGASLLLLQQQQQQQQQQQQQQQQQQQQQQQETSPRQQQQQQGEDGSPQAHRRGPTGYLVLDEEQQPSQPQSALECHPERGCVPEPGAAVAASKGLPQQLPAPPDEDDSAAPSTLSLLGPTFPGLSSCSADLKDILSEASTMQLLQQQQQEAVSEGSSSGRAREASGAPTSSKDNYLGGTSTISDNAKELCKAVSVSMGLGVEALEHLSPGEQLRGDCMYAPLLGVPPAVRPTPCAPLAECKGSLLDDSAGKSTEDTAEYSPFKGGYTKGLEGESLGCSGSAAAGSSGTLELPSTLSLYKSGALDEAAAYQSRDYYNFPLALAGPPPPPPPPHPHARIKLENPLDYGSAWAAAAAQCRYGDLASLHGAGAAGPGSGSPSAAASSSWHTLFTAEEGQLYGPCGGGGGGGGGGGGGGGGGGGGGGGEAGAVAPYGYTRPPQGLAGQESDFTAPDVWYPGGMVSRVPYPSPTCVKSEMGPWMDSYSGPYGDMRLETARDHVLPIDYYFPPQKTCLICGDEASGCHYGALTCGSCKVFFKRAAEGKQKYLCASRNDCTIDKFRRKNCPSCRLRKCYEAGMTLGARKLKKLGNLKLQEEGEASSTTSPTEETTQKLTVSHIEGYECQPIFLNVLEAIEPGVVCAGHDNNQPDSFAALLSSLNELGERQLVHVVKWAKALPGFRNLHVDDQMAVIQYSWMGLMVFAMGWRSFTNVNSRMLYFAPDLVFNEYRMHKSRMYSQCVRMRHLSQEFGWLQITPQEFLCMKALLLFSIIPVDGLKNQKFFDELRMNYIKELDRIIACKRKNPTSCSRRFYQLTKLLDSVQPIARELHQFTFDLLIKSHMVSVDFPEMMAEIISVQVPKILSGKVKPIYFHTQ
As to the kind of experiment: Hormone receptor signaling pathway selectivity: AR. The settings on record: with DHT.

In a further test the target is ER-β (Homo sapiens, UniProt Q92731). As to the kind of experiment: Hormone receptor signaling pathway selectivity: ER-β. The settings on record: with E2.
ER-β, sequence (Q92731 whole entry, species assumed): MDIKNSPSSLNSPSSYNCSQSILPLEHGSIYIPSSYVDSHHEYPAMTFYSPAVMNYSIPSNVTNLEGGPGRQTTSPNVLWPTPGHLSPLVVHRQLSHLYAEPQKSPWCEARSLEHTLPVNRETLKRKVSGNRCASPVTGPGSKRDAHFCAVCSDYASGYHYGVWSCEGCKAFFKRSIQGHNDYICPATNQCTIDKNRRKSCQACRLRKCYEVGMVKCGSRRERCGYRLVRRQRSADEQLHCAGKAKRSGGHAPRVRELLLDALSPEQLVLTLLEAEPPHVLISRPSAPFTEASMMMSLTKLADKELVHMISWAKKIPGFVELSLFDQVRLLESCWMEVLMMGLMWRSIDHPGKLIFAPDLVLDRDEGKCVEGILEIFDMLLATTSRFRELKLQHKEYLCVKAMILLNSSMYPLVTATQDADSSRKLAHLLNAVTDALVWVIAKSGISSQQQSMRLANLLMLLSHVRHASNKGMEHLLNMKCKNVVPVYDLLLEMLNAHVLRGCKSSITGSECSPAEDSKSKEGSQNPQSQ
The next test deals with T3, VDR (Homo sapiens, UniProt P11473).
T3 sequence (P11473 1-427): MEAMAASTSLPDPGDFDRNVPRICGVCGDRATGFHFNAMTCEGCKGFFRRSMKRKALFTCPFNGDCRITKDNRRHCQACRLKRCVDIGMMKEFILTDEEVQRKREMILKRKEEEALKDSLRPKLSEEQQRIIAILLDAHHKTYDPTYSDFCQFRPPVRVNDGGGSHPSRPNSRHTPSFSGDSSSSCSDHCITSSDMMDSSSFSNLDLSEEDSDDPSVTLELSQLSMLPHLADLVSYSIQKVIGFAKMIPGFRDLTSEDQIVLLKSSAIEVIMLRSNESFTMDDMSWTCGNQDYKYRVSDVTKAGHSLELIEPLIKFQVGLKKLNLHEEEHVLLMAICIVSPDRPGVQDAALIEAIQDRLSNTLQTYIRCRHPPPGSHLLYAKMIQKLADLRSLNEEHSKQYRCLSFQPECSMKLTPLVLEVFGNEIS
The test can be described thus: Hormone receptor signaling pathway selectivity: VDRE (VDR). The settings on record: for IC50: with VD3; for EC50: biphasic model of action, read-out: EC50, stimulation of VDR activity.

The target of another test is T4, FXR (Homo sapiens, UniProt Q96RI1).
T4 construct: HepG2 cells were stably transfected with either FXR reporter DNA; endogenous in cells; host or cells: HepG2 cells stably transfected with a 3x FXR response element PGL4.2 luciferase reporter
T4 sequence (Q96RI1 1-486): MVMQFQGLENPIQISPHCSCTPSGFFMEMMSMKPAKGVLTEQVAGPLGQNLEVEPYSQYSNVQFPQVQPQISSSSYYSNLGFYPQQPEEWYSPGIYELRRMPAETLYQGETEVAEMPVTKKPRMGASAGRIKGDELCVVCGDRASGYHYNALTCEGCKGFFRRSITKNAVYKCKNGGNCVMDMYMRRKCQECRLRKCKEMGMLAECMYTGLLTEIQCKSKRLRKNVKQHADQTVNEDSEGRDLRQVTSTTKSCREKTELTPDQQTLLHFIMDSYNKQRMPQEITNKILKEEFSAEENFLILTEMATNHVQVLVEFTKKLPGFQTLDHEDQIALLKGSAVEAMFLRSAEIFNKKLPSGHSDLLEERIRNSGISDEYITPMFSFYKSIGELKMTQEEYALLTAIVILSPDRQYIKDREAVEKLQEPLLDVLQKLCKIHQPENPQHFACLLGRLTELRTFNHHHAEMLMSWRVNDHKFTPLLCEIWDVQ
The test can be described thus: FXR luciferase reporter assay in HepG2 reporter cells. The settings on record: for EC50: no ligand added, read-out: FXR (stimulation EC50). As to the method:
FXR luciferase reporter cells—FXR luciferase reporter cells—HepG2 cancer cells were used in the screening study. HepG2 cells were stably transfected with either FXR reporter DNA in which 3 repeated response element ([…])(SEQ ID NO:2) was inserted in-PGL4.2 luciferase reporter plasmid or LXR reporter DNA in which 3 repeated response element ([…])(SEQ ID NO:3) was inserted in PGL4.2 luciferase reporter plasmid. Reporter cells were selected by puromycin (1 ug/mL) in RPMI-1640 medium with 10% FBS.
Luciferase assay—Reporter cells were treated with compounds at 0, 10, 20, 40, and […] for 24h in a 37° C.-CO2 incubator with or without chenodeoxycholic acid (CDCA) for FXR reporter cells or GW3965 for LXR reporter cells. Cells were lysed using luciferase lysis buffer after which luciferase buffer with luciferin was added to generate luminescence. Luminescence was recorded using a luminescence microplate reader.
(In general: In a reporter assay the amount or activity of a reporter protein is the signal.)

For the next test, the system named is BACS. As to the kind of experiment: RT-qPCR for FXR target genes in HepG2 cells: BACS. The protocol: Real Time Quantitative PCR (RT-qPCR)—Real Time Quantitative PCR (RT-qPCR) for FXR target genes: RNA was extracted from NZZ compounds treated cells using the Roche High Pure RNA isolation kit. cDNA was then generated from RNA samples using Bio-rad iScript Advanced cDNA synthesis kit for RT-qPCR. qPCR was performed using primers as shown in the Table 1 and iTaq™ Universal SYBR® Green Supermix in CFX PCR machine (Bio-rad). Relative mRNA expression was calculated based on the change of the threshold cycle relative to the internal control, (3-actin, using a standard curve generated by purified PCR products.
(Real-time PCR tracks product formation cycle by cycle.)

Test [1] deals with other hormone receptor signaling pathways. As to the kind of experiment: Selectivity for different hormone receptor signaling pathways (panel).
The mark [2] stands for this setting: read-out: ER-α with ligand E2 (inhibition IC50).
Setting [3] is: read-out: AR with ligand DHT (inhibition IC50).
Setting [4] is: read-out: ER-β with ligand E2 (inhibition IC50).
Where [5] appears, read: read-out: VDRE with ligand VD3 (inhibition IC50).
[6] abbreviates: read-out: IC50, inhibition of DHT action on AR.
[7] abbreviates: read-out: IC50, inhibition of VD3 action on VDR.

With `C=C(CCC(C(=O)O)[C@H]1C[C@H](OC(C)=O)[C@@]2(C)C3=CC[C@H]4C(C)(C)[C@@H](O)CC[C@]4(C)C3=CC[C@]12C)C(C)C` (stereo partly shown) [compound (IX)], the IC50 at ER-α (setting [2]), at AR (setting [3]), on ER-β (setting [4]) and on VDR (setting [5]) was > 80 µM each time. Also, the EC50 at FXR was > 80 µM.
Consider `CC(C)=CCCC(C(=O)O)C1CC(O)C2(C)C3=CCC4C(C)(CCC(O)C4(C)C)C3=CCC12C` (stereo not shown) [compound (V)], for which the IC50 on ER-α (setting [2]), on AR (setting [3]), on ER-β (setting [4]) and on VDR (setting [5]) was > 80 µM each time. For the same compound, the EC50 on FXR is > 80 µM.
Turning to `C=C(CC[C@@H](C)[C@H]1CC[C@H]2C3=C(C(=O)[C@H](O)[C@]12C)[C@@]1(C)CC[C@@H](O)[C@@H](C)[C@@H]1CC3=O)[C@H](C)C(=O)O` [compound (II)], the concentration for half-maximal inhibition (IC50) on ER-α (setting [2]), on AR (setting [3]), on ER-β (setting [4]) and at VDR (setting [5]) was > 80 µM throughout. The “BACS mRNA expression, fold lower than the CDCA induced BACS expression” value in the test with BACS is recorded as “about 2 fold”. The “impact on other hormone receptor signaling pathways” value in test [1] is reported as “no impact”. The “induction of FXR activity / FXR mediated transcriptional response” value on FXR (HepG2 FXR-luciferase reporter cells) is given as “act as agonists; also recorded: induce/enhance FXR activity”. For the same compound, the EC50 at FXR came to 40 µM.
Take `C=C(CC[C@@H](C)[C@H]1CC[C@H]2C3=C(C(=O)C[C@]12C)[C@@]1(C)CCC(=O)[C@@H](C)[C@@H]1CC3=O)[C@H](C)C(=O)O` [compound (VII)]: the IC50 is > 80 µM at ER-α (setting [2]); 40 µM at AR (setting [6]); 40 µM on ER-β (read-out: IC50, inhibition of E2 action on ERβ); 20 µM on VDR (setting [7]). For the same compound, the EC50 on FXR was > 80 µM.
On to `C=C(CC[C@@H](C(=O)O)[C@H]1C[C@H](O)[C@@]2(C)C3=CC[C@H]4C(C)(C)C(O)CC[C@]4(C)C3=CC[C@]12C)C(C)C` (stereo partly shown) [compound (VI)], for which the IC50 on ER-α (setting [2]), at AR (setting [3]), at ER-β (setting [4]) and at VDR (setting [5]) was > 80 µM in each case. Also, the EC50 at FXR is > 80 µM.
On to `C=C(CCC(C(=O)O)C1CCC2(C)C3=C(CCC12C)C1(C)CCC(O)C(C)(C)C1CC3)C(C)C` (stereo not shown) [compound (XII)], for which the IC50 at ER-α (setting [2]), at AR (setting [3]), on ER-β (setting [4]) and at VDR (setting [5]) was > 80 µM each time. Besides, the EC50 is 1.5 µM on VDR and > 80 µM on FXR.
In the case of `C=C(CC[C@@H](C)[C@H]1CC[C@H]2C3=C(C(=O)C[C@]12C)[C@@]1(C)CCC(=O)[C@@H](C)[C@@H]1C[C@@H]3O)[C@@H](C)C(=O)O` [compound (IV)], the IC50 on ER-α (setting [2]) is 70 µM; at ER-α (read-out: IC50, inhibition of E2 triggered ERα mediated transcriptional response) it was ~80 µM; on AR (setting [3]), > 80 µM; at ER-β (setting [4]), > 80 µM; on VDR (setting [5]), > 80 µM. In addition, the EC50 at FXR was > 80 µM.
As to `C=C(CCC(C(=O)O)C1CCC2(C)C3=CCC4C(C)(CCC(O)C4(C)C)C3=CCC12C)C(C)C` (stereo not shown) [compound (X)], the IC50 at ER-α (setting [2]), on AR (setting [3]), on ER-β (setting [4]) and at VDR (setting [5]) was > 80 µM in each case. The EC50 was 1.5 µM at VDR and > 80 µM on FXR.
For the compound `C=C(CC[C@@H](C)[C@H]1CC[C@H]2C3=C(C(=O)C[C@]12C)[C@@]1(C)CCC(=O)[C@@H](C)[C@@H]1CC3=O)[C@@H](C)C(=O)O` [compound (VIII)], the IC50 was > 80 µM on ER-α (setting [2]), 25 µM at AR (setting [6]), > 80 µM on ER-β (setting [4]) and 25 µM on VDR (setting [7]). The EC50 at FXR was > 80 µM.
As to `C=C(CC[C@@H](C)[C@H]1CC[C@H]2C3=C(CC[C@]12C)[C@@]1(C)CC[C@@H](O)C(C)(C)[C@@H]1C[C@@H]3O)[C@@H](C)C(=O)O` [compound (XI)], the IC50 at ER-α (setting [2]), at AR (setting [3]), at ER-β (setting [4]) and at VDR (setting [5]) was > 80 µM each time. The EC50 at FXR is > 80 µM.
As to `C=C(CC[C@@H](C)[C@H]1CC[C@H]2C3=C(C(=O)C[C@]12C)[C@@]1(C)CCC(=O)[C@@H](C)[C@@H]1C[C@@H]3O)[C@H](C)C(=O)O` [compound (III)], the IC50 at ER-α (setting [2]), at AR (setting [3]), at ER-β (setting [4]) and at VDR (setting [5]) was > 80 µM throughout. For the same compound, at FXR, the EC50 is > 80 µM.
